From patent publication US8106233B2, “Antioxidant compounds” (Merck Patent GmbH, priority 2005, dated 2012)

What was measured:
[1] = 2,2-diphenyl-1-picrylhydrazyl (DPPH) assay; settings: DPPH in ethanol, 515 nm, 25° C.
Protocol: The unpaired electron results in a strong absorption band at 515 nm, and the solution has a dark-violet colour. In the presence of a free-radical scavenger, the electron is paired, the absorption disappears, and the decoloration proceeds stoichiometrically taking into account the electrons taken up. The absorbance is measured in a photometer. The anti-free-radical property of the substance to be tested is determined by measuring the concentration at which 50% of the 2,2-diphenyl-1-picrylhydrazyl employed has reacted with the free-radical scavenger. This concentration is expressed as EC50, a value which should be regarded as a property of the substance under the given measurement conditions. The substance investigated is compared with a standard (for example tocopherol). The EC50 value here is a measure of the capacity of the respective compound to scavenge free radicals. The lower the EC50 value, the higher the capacity to scavenge free radicals. […] A further important aspect for the action of the antioxidants is the time in which this EC50 value is achieved. This time, measured in minutes, gives the TEC50 value, which allows a conclusion to be drawn on the rate at which these antioxidants scavenge free radicals. […] The unpaired electron results in a strong absorption band at 515 nm, and the solution has a dark-violet colour. In the presence of a free-radical scavenger, the electron is paired, the absorption disappears, and the decoloration proceeds stoichiometrically taking into account the electrons taken up. The absorbance is measured in a photometer. The anti-free-radical property of the substance to be tested is determined by measuring the concentration at which 50% of the 2,2-diphenyl-1-picrylhydrazyl employed have reacted with the free-radical scavenger. This concentration is expressed as EC50, a value which should be regarded as a substance property under the given measurement conditions. The substance investigated is compared with a standard (for example tocopherol). The EC50 value here is a measure of the capacity of the respective compound to scavenge free radicals. The lower the EC50 value, the higher the capacity to scavenge free radicals. […] Various concentrations of the compound to be tested are added to aliquots of this solution. The absorbance is measured in each case at 515 nm, 25° C. and 1 cm. […] The lower this value, the higher the corresponding free-radical-reducing activity. The reaction time needed to achieve this value is indicated in the value TEC50 (in minutes).

[2] = Oxidation in UV light: change in the UV spectrum on irradiation; assay type: physicochemical; settings: xenon lamp
Protocol: The curves stand for the unirradiated substance (exposed to 0 kJ/m^2), after irradiation for 15 min (exposure to 86 kJ/m^2), after irradiation for 65 min (exposure to 373 kJ/m^2), after irradiation for 235 min (exposure to 1349 kJ/m^2) and after irradiation for 405 min (exposure to 2325 kJ/m^2).

[3] = Oxidation in UV light in the presence of further antioxidants: beta-carotene emulsions on irradiation; assay type: physicochemical; settings: emulsion with 0.5% by weight beta-carotene and 4% by weight compound vs emulsion without compound, UV irradiation for 90 min, n=4

SMILES | Stability TEC50 (reaction time needed to achieve EC50) [1] | Emax of the UV-A absorption formed on irradiation ([2]; after UV irradiation, 290-400 nm) | Change in UV absorption in the UV-A region on irradiation ([2]; after irradiation for 65 min (373 kJ/m^2), 95.69 W/m^2 in the range 290-400 nm, increases further on longer irradiation) | Effect on beta-carotene degradation (absorption at Emax 440-480 nm) in emulsion [3]
O=C1O[C@H]([C@@H](O)CO)C(O)=C1O [Ascorbic acid] | <5 min | – | – | –
O=C1OC(C(O)CO)C(OP(=O)(O)O)=C1O (stereo not drawn) [Ascorbyl (2-O) phosphate] | 1200 min | – | – | –
CCCCC(CC)COC(=O)C(Cc1cc(OC)c(O)c(OC)c1)C(=O)OCC(CC)CCCC (stereo not drawn) [Hydroxy dimethoxybenzyl malonate, di-2-ethylhexyl 4-hydroxy-3,5-dimethoxy-benzylmalonate] | 600 min | 320-340 nm | significantly increased UV absorption | stabilises the beta-carotene
CCCCC(CC)COC(=O)C(=Cc1cc(OC)c(O)c(OC)c1)C(=O)OCC(CC)CCCC (stereo not drawn) [Hydroxy dimethoxybenzylidene malonate, Di-2-ethylhexyl (4-hydroxy-3,5-dimethoxybenzylidene)malonate] | 1200 min | – | – | –
Cc1c(C)c2c(c(C)c1O)CC[C@@](C)(CCC[C@H](C)CCC[C@H](C)CCCC(C)C)O2 [alpha-Tocopherol] | 30 min | – | – | –
CC(=O)Oc1c(C)c(C)c2c(c1C)CCC(C)(CCC[C@H](C)CCC[C@H](C)CCCC(C)C)O2 (stereo partly drawn) [alpha-Tocopheryl acetate] | 600 min | – | – | –
